The test system of experiment [1] is MOLP-8 human multiple myeloma cell line. Nature of the experiment: Caspase-Glo 3/7 apoptosis induction assay in MOLP-8 cells. The note with it: caspase-3/7 activity, 2 hours at 37° C., averaged over all runs on all batches, read-out: MOLP8 AC50. The format is cell-based. The text has this:
MCL-1 is a regulator of apoptosis and is highly over-expressed in tumor cells that escape cell death. The assay evaluates the cellular potency of small-molecule compounds targeting regulators of the apoptosis pathway, primarily MCL-1, Bfl-1, Bcl-2, and other proteins of the Bcl-2 family. Protein-protein inhibitors disrupting the interaction of anti-apoptotic regulators with BH3-domain proteins initiate apoptosis.
The Caspase-Glo® 3/7 Assay is a luminescent assay that measures caspase-3 and -7 activities in purified enzyme preparations or cultures of adherent or suspension cells. The assay provides a proluminescent caspase-3/7 substrate, which contains the tetrapeptide sequence DEVD. This substrate is cleaved to release aminoluciferin, a substrate of luciferase used in the production of light. Addition of the single Caspase-Glo® 3/7 Reagent in an “add-mix-measure” format results in cell lysis, followed by caspase cleavage of the substrate and generation of a “glow-type” luminescent signal.
This assay uses the MOLP-8 human multiple myeloma cell line, which is sensitive to MCL-1 inhibition.
Cell cultures were maintained between 0.2 and 2.0×10^6 cells/mL. The cells were harvested by collection in 50 mL conical tubes. The cells were then pelleted at 500 g for 5 mins before removing supernatant and resuspension in fresh pre-warmed culture medium. The cells were counted and diluted as needed.
The assay reagent was prepared by transferring the buffer solution to the substrate vial and mixing. The solution may be stored for up to 1 week at 4° C. with negligible loss of signal.
Compounds were delivered in assay-ready plates (Proxiplate) and stored at −20° C.
Assays always include 1 reference compound plate containing reference compounds. The plates were spotted with 40 nL of compounds (0.5% DMSO final in cells; serial dilution; 30 μM highest conc. 1/3 dilution, 10 doses, duplicates). The compounds were used at room temperature and 4 μL of pre-warmed media was added to all wells except column 2 and 23. The negative control was prepared by adding 1% DMSO in media. The positive control was prepared by adding the appropriate positive control compound in final concentration of 60 μM in media. The plate was prepared by adding 4 μL negative control to column 23, 4 μL positive control to column 2, and 4 μL cell suspension to all wells in the plate. The plate with cells was then incubated at 37° C. for 2 hours. The assay signal reagent is the Caspase-Glo solution described above, and 8 μL was added to all wells. The plates were then sealed and measured after 30 minutes.
The activity of a test compound was calculated as percent change in apoptosis induction as follows: […]

The target of experiment [2] is Myeloid Cell Leukemia 1 (Mcl-1) (Homo sapiens (Human), UniProt Q07820). Nature of the experiment: Terbium labeled Mcl-1 HTRF binding assay, displacement of Cy5-labeled BIM BH3 peptide. The note with it: 25 pM Tb-Mcl-1, 8 nM Cy5 Bim peptide, 60 minutes at room temperature, read-out: Tb-MCL1 Ki. The method, then: Terbium labeled Myeloid Cell Leukemia 1 (Mcl-1) homogeneous time-resolved fluorescence (HTRF) binding assay utilizing the BIM BH3 peptide (H2N—(C/Cy5Mal) WIAQELRRIGDEFN-OH) as the binding partner for Mcl-1.
Sequence of Myeloid Cell Leukemia 1 (Mcl-1) (Q07820 whole entry, the tested form may be a part): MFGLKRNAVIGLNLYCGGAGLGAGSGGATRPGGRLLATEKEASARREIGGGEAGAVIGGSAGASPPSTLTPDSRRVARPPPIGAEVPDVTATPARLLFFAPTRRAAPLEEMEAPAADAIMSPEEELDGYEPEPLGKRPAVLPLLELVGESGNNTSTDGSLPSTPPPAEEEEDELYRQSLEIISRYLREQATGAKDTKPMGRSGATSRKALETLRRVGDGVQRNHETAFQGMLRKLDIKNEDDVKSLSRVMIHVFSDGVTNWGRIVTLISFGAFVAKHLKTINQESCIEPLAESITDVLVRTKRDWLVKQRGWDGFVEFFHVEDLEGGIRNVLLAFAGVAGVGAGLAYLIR
This assay evaluated inhibition of the BH3 domain: Mcl-1 interaction by measuring the displacement of Cy5-labeled BIM BH3 peptide (H2N—(C/Cy5Mal) WIAQELRRIGDEFN-OH) in the HTRF assay format.
The following assay and stock buffers were prepared for use in the assay: (a) Stock buffer: 10 mM Tris-HCl, pH=7.5+150 mM NaCl, filtered, sterilized, and stored at 4° C.; and (b) 1× assay buffer, where the following ingredients were added fresh to stock buffer: 2 mM dithiothreitol (DTT), 0.0025% Tween-20, 0.1 mg/mL bovine serum albumin (BSA). The 1×Tb-Mcl-1+Cy5 Bim peptide solution was prepared by diluting the protein stock solution using the 1× assay buffer (b) to 25 pM Tb-Mcl-1 and 8 nM Cy5 Bim peptide.
Using the Acoustic ECHO, 100 nL of 100× test compound(s) were dispensed into individual wells of a white 384-well Perkin Elmer Proxiplate, for a final compound concentration of 1× and final DMSO concentration of 1%. Inhibitor control and neutral control (NC, 100 nL of 100% DMSO) were stamped into columns 23 and 24 of assay plate, respectively. Into each well of the plate was then dispensed 10 μL of the 1×Tb-Mcl-1+Cy5 Bim peptide solution. The plate was centrifuged with a cover plate at 1000 rpm for 1 minute, then incubated for 60 minutes at room temperature with plates covered.
The TR-FRET signal was read on an BMG PHERAStar FSX MicroPlate Reader at room temperature using the HTRF optic module (HTRF: excitation: 337 nm, light source: laser, emission A: 665 nm, emission B: 620 nm, integration start: 60 μs, integration time: 400 μs).
The BMG PHERAStar FSX MicroPlate Reader was used to measure fluorescence intensity at two emission wavelengths—665 nm and 620 nm—and report relative fluorescence units (RFU) for both emissions, as well as a ratio of the emissions (665 nm/620 nm)*10,000. The RFU values were normalized to percent inhibition as follows:
% inhibition(((NC−IC)−(compound−IC))/(NC−IC))*100
where IC (inhibitor control, low signal)=mean signal of 1× Tb-MCl-1+Cy5 Bim peptide+inhibitor control or 100% inhibition of Mcl-1; NC (neutral control, high signal)=mean signal 1×Tb-MCl-1+Cy5 Bim peptide with DMSO only or 0% inhibition
An 11-point dose response curve was generated to determine IC50 values (using GenData) based on the following equation:
where Y=% inhibition in the presence of X inhibitor concentration; Top=100% inhibition derived from the IC (mean signal of Mcl-1+inhibitor control); Bottom=0% inhibition derived from the NC (mean signal of Mcl-1+DMSO); Hillslope=Hill coefficient; and IC50=concentration of compound with 50% inhibition in relation to top/neutral control (NC).
Representative compounds of the present invention were tested according to the procedure as described above, with results as listed in the Table below (n.d. means not determined).

Like-named read-outs stand apart in the source and are kept apart here.

By AC50 is commonly meant the midpoint of the concentration-response curve, whichever way the signal moves. The Ki is the dissociation constant of the complex between target and ligand, obtained from inhibition or displacement. Regarding `COc1nn(C)cc1C(=O)NS1(=O)=NC(=O)c2ccc3c(c2)N(C[C@@H]2CCO[C@H]2C(OC)/C(F)=C/C[C@H](C)C1)C[C@@]1(CCCc2cc(Cl)ccc21)CO3` (single isomer, unassigned) [Compound 26], in experiment [1], the AC50 was greater than 5000 nM. The Ki in experiment [2] came out at 5.12 nM.
On to `COc1nn(C)cc1C(=O)NS1(=O)=NC(=O)c2ccc3c(c2)N(C[C@@H]2CCO[C@H]2C(CN2CCN4CCOC[C@@H]4C2)(OC)/C(F)=C/C[C@H](C)C1)C[C@@]1(CCCc2cc(Cl)ccc21)CO3` (single isomer, unassigned) [Compound 27], for which the AC50 in experiment [1] came to 424 nM. For the same compound, the Ki in experiment [2] is 0.048 nM.
In the case of `COc1nn(C)cc1C(=O)NS1(=O)=NC(=O)c2ccc3c(c2)N(C[C@@H]2CCO[C@H]2C(CN2CCN4CCOC[C@@H]4C2)(OC)/C(F)=C/C[C@H](C)C1)C[C@@]1(CCCc2cc(Cl)ccc21)CO3` (single isomer, unassigned) [Compound 28], in experiment [1], the AC50 worked out at 23.2 nM. Further, in experiment [2], the Ki amounted to 0.011 nM.
In the case of `COc1nn(C)cc1C(=O)NS1(=O)=NC(=O)c2ccc3c(c2)N(C[C@@H]2CCO[C@H]2C(CN2CCN4CCOC[C@@H]4C2)(OC)/C(F)=C/C[C@H](C)C1)C[C@@]1(CCCc2cc(Cl)ccc21)CO3` (single isomer, unassigned) [Compound 29], the AC50 in experiment [1] was 702 nM. In addition, the Ki in experiment [2] came out at 0.17 nM.
As to `COc1nn(C)cc1C(=O)NS1(=O)=NC(=O)c2ccc3c(c2)N(C[C@@H]2CCO[C@H]2C(CN2CCN4CCOC[C@@H]4C2)(OC)/C(F)=C/C[C@H](C)C1)C[C@@]1(CCCc2cc(Cl)ccc21)CO3` (single isomer, unassigned) [Compound 30], in experiment [1], the AC50 was found to be 28.6 nM. Further, the inhibition constant (Ki) in experiment [2] was determined as 0.014 nM.
On to `CO[C@H]1/C(F)=C/C[C@H](C)[C@@H](C)S(=O)(=O)NC(=O)c2ccc3c(c2)N(C[C@@H]2CCO[C@H]21)C[C@@]1(CCCc2cc(Cl)ccc21)CO3` [Compound 1], for which the concentration at half-maximal activity (AC50) in experiment [1] (Homo sapiens, MOLP-8, 2 h) amounted to 191 nM. Further, the inhibition constant Ki in experiment [2] worked out at 0.218 nM.
Turning to `CO[C@@H]1/C(F)=C/C[C@H](C)[C@@H](C)S(=O)(=O)NC(=O)c2ccc3c(c2)N(C[C@@H]2CCO[C@H]21)C[C@@]1(CCCc2cc(Cl)ccc21)CO3` [Compound 2], the AC50 in experiment [1] (Homo sapiens, MOLP-8, 2 h) came out at 1120 nM. Besides, the Ki in experiment [2] amounted to 1.13 nM.
`CO[C@H]1/C=C/C[C@H](C)[C@@H](C)S(=O)(=O)NC(=O)c2ccc3c(c2)N(C[C@@H]2CCO[C@H]21)C[C@@]1(CCCc2cc(Cl)ccc21)CO3` [Compound 3]: the concentration at half-maximal activity (AC50) in experiment [1] (Homo sapiens, MOLP-8, 2 h) was found to be 432 nM. Further, in experiment [2], the Ki was determined as 0.466 nM.
For `COCC1/C=C/C[C@H](C)[C@@H](C)S(=O)(=O)NC(=O)c2ccc3c(c2)N(C[C@@H]2CCO[C@@H]12)C[C@@]1(CCCc2cc(Cl)ccc21)CO3` (some centres unmarked) [Compound 16], in experiment [1] (Homo sapiens, MOLP-8, 2 h), the concentration at half-maximal activity (AC50) is 1820 nM. Further, in experiment [2], the Ki came out at 0.673 nM.
For the compound `COCC1/C=C/C[C@H](C)[C@@H](C)S(=O)(=O)NC(=O)c2ccc3c(c2)N(C[C@@H]2CCO[C@@H]12)C[C@@]1(CCCc2cc(Cl)ccc21)CO3` (some centres unmarked) [Compound 17], the AC50 in experiment [1] worked out at 2820 nM. Also, the Ki in experiment [2] came to 0.678 nM.

The record behind these values is patent US20240239812A1, “MACROCYCLIC 2-ALLYLTETRAHYDROFURANS AS INHIBITORS OF MCL-1” (JANSSEN PHARMACEUTICA NV, priority 2021, published 2024).
